Where “and” joins values, the source holds several entries; their conditions need not be identical. Equal entries are not always repeated. Entries after “also recorded” stand apart in the source; their conditions may differ. Where two headings read alike, the source gives them in different places.

Data set [1] concerns the target mushroom tyrosinase. Also noted: method as in doi:10.1039/C5RA14465E. To be noted: data previously reported; cited from earlier work.
In data set [2] the test system is mushroom tyrosinase. The data set is described as follows: Tyrosinase inhibition assay (L-DOPA substrate). In kind it is biochemical. To be noted: for Enzyme inhibition Tyrosinase: 50 μM; for times more active than the standard inhibitor kojic acid (tyrosinase): ratio of IC50 values; for IC50: mean ± SD of three independent experiments. As to the method: (§1) Since the compounds were dissolved in DMSO, in the assays carried out without compounds, DMSO was added to the reaction mixture as blank control. […] Data from activity experiments were recorded using an Ultrospec 2100 spectrophotometer (Biochrom Ltd., Cambridge, UK).
The inhibition of tyrosinase was monitored by using DOPA as substrate. The reaction solution contained phosphate buffer (25 mM, pH 6.8) and mushroom tyrosinase (100 U/mL), with or without test samples.

The test system of data set [3] is Collagenase from Clostridium histolyticum. The data set is described as follows: Collagenase inhibition assay (FALGPA substrate). Format: biochemical. To be noted: for Enzyme inhibition Collagenase: 100 μM; for IC50: mean ± SD of three independent experiments. As to the method:
Results from all the inhibition tests described below were reported as a percentage of the blank control. Since the compounds were dissolved in DMSO, in the assays carried out without compounds, DMSO was added to the reaction mixture as blank control. […] Data from activity experiments were recorded using an Ultrospec 2100 spectrophotometer (Biochrom Ltd., Cambridge, UK).
Collagenase from Clostridium histolyticum (1 U/mL) was prepared in 0.05 M Tricine buffer (pH 7.5), with 0.4 M NaCl and 0.01 M CaCl2, and incubated with different concentrations of test samples for 15 minutes. After adding the N-(3-[2-Furyl]-acryloyl)-Leu-Gly-Pro-Ala (FALGPA) substrate, prepared in the same buffer solution reaching a final concentration of 0.8 mM, the absorbance was registered at 340 nm. Epigallocatechin gallate was used as a positive control.

Data set [4] deals with Human skin keratinocyte cell line (HaCaT). Kind of data set: HaCaT cell viability (MTT assay). To be noted: 10–200 μM, 24 h. Format: cell-based. As for the experimental part:
Human skin keratinocyte cell line (HaCaT; CLS–Cell Lines Service, Eppelheim, Germany) was cultured in Dulbecco’s Modified Eagle’s Medium (DMEM) with 10% fetal bovine serum (FBS; Gibco, NY, USA) and 1% penicillin/streptomycin at 37 °C in a humidified atmosphere with 5% CO2. Cell viability was determined by the MTT (3-(4,5-dimethylthiazol-2-yl)-2,5-diphenyltetrazolium bromide) colorimetric assay, as previously reported. Briefly, HaCaT cells were seeded in 96-well plates and incubated with compounds at different concentrations (0–200 µM). After 24 h, cells were labelled with MTT solution for 3 h at 37 °C. DMSO was added to the formed violet formazan precipitates and the absorbance of each well was measured at 560 nm.

Data set [5] concerns the target porcine pancreatic elastase (Sus scrofa, UniProt P00772). Kind of data set: Elastase inhibition assay (SANA substrate). In kind it is biochemical. To be noted: for inhibition at 50 µM: read-out: Enzyme inhibition Elastase; for IC50: mean ± SD of three independent experiments. As to the method:
as §1
The inhibition of elastase was determined by measuring the production of p-nitroaniline during the reaction of the enzyme with the N-succ-(Ala)3-nitroanilide (SANA) substrate. The assay was carried out in Tris-HCl buffer (0.1 M, pH 8.0) containing porcine pancreatic elastase (3.3 µg/mL). The reaction mixture was incubated in the presence or in the absence of the test compounds for 20 minutes and, once the substrate (1.6 mM) was added, the enzyme activity was monitored at 410 nm.

A further data set deals with tyrosinase. To be noted: cited from earlier work.
The next data set deals with T1, hyaluronidase (Bos taurus, UniProt Q2YDK3).
T1 sequence (Q2YDK3 36-553): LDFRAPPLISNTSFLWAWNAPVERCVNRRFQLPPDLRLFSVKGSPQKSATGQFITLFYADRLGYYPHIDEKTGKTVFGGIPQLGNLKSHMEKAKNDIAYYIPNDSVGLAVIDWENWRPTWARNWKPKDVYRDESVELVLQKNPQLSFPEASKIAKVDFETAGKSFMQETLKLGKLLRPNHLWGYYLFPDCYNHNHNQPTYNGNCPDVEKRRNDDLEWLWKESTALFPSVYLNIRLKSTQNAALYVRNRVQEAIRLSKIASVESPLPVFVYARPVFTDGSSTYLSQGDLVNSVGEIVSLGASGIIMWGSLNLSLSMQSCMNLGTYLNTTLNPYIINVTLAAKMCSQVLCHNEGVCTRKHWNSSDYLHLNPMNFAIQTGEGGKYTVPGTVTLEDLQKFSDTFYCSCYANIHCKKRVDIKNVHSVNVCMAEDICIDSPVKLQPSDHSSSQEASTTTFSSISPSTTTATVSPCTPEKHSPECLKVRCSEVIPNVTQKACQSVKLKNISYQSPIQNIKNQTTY
The data set is described as follows: Hyaluronidase inhibition assay. In kind it is biochemical. To be noted: ratio of IC50 values. As for the experimental part: as §1
Inhibition of hyaluronidase was determined following the method reported by Chompoo and co-authors. A 5 μL test sample was incubated with 100 μL of enzyme solution (1.5 U) containing 20 mM sodium phosphate buffer (pH 7.0) with 77 mM NaCl and bovine serum albumin (BSA) 0.01%. […] After 10 minutes at room temperature, the absorbance was monitored at 600 nm.

Data set [6] in a line: In vitro determination of the sun protection factor (UV absorbance, Mansur equation). In kind it is physicochemical. To be noted: compounds 0.1 mg/mL, absorbance 290–320 nm. As for the experimental part:
The sun protection factor of coumarins’ derivatives was measured by the UV absorbance method, as previously reported. The absorbances of the compounds (0.1 mg/mL) were registered in the range of 290–320 nm, with 5 nm increments, and three measurements were performed at each point. The SPF was determined by using the Mansur Equation [23]: SPF=CF × Σ290320 × EE(λ) × I(λ) × Abs(λ) where CF = correction factor (10); EE (λ) = erythemogenic effect of radiation with wavelength λ; I(λ) = solar intensity spectrum; Abs(λ) = spectrophotometric absorbance values at wavelength λ. The values of EE (λ) × I(λ) are constant as determined by Sayre et al. (Table 5).

Where [7] appears, read: already described by our research group.

Sequence of porcine pancreatic elastase (P00772 27-266): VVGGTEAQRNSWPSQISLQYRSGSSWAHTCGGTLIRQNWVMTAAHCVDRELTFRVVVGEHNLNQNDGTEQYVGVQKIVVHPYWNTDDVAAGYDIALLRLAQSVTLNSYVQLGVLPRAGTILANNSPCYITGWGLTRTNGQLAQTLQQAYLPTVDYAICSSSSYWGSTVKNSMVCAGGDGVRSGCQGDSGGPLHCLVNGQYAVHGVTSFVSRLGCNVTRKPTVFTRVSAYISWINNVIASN

Regarding `O=c1oc2cc(O)cc(O)c2cc1-c1ccc(Br)cc1` [Compound 1, 3-(4′-Bromophenyl)-5,7-dihydroxycoumarin], the melting point lay within 273 to 275 °C. In addition, the half-maximal inhibitory concentration (IC50) on mushroom tyrosinase [1] is 1.05 ± 0.06 µM. In the data set with mushroom tyrosinase [2], the “Enzyme inhibition Tyrosinase” value stood at 98.3% and the “times more active than the standard inhibitor kojic acid (tyrosinase)” value came out at 17 times. Besides, in data set [3], the “Enzyme inhibition Collagenase” value was determined as 42.6% and inhibition was half-maximal at 123 ± 2.2 µM (IC50). In data set [4], the “Cytotoxicity on HaCaT cell viability” value is “non-cytotoxic; also recorded: no toxicity”. Moreover, the inhibition at 50 µM in data set [5] (50 μM) was 15.6%. The 50% inhibitory concentration (IC50) in data set [5] is > 50 µM.

`O=c1oc2c(O)cc(O)cc2cc1-c1cc(O)c(O)c(O)c1` [6,8-Dihydroxy-3-(3',4',5'-trihydroxyphenyl)coumarin]: on tyrosinase (setting [7]), the concentration for half-maximal inhibition (IC50) is 270 µM.

Consider `O=c1oc2cc(O)c(O)cc2cc1-c1ccc(Br)cc1` [Compound 4, 3-(4′-Bromophenyl)-6,7-dihydroxycoumarin], for which the “Enzyme inhibition Tyrosinase” value with mushroom tyrosinase [2] worked out at 58.3%. Besides, the IC50 against mushroom tyrosinase [2] is 39.9 ± 0.7 µM; in data set [3], > 150 µM; in [5], > 50 µM. Besides, the “times more active than the reference compound oleanolic acid (hyaluronidase)” value at hyaluronidase is listed as 1.9 times. For the same compound, in data set [3], the “Enzyme inhibition Collagenase” value was “N.I”. In data set [5] (50 μM), the inhibition at 50 µM amounted to 30.5%.

Turning to `O=c1oc2ccc3ccccc3c2cc1-c1cc(O)cc(O)c1` [Compound 17, 3-(3′,5′-Dihydroxyphenyl)benzo[f]coumarin], in the data set on mushroom tyrosinase [2], the “Enzyme inhibition Tyrosinase” value came out at 10.0%. Further, the IC50 against mushroom tyrosinase [2] was > 50 µM; in [3], > 150 µM; in [5] it was > 50 µM. Besides, in [3], the “Enzyme inhibition Collagenase” value is given as 15.6%. For the same compound, the inhibition at 50 µM in data set [5] (50 μM) worked out at 22.4%. In data set [6], this compound displayed an SPF of 4.34 ± 0.66.

In the case of `O=c1oc2cc(O)c(O)cc2cc1-c1cccc(O)c1` [Compound 11, 6,7-Dihydroxy-3-(3′-hydroxyphenyl)coumarin], in the data set on mushroom tyrosinase [2], the “Enzyme inhibition Tyrosinase” value was determined as 8.6% and the IC50 is > 50 µM. In [3], the “Enzyme inhibition Collagenase” value was 35.7% and the IC50 was determined as 143 ± 7.1 µM. The inhibition at 50 µM in data set [5] (50 μM) was 29.6%. Further, the IC50 in data set [5] was > 50 µM. Further, the SPF in [6] is 5.44 and 5.44 ± 0.64.

For the compound `O=c1oc2c(O)c(O)ccc2cc1-c1ccc(Br)cc1` [Compound 7, 3-(4′-Bromophenyl)-7,8-dihydroxycoumarin], in the data set with mushroom tyrosinase [2], the “Enzyme inhibition Tyrosinase” value is 9.6% and the half-inhibitory concentration (IC50) is > 50 µM. In [3], the “Enzyme inhibition Collagenase” value was “N.I” and the 50% inhibitory concentration (IC50) was > 150 µM. In addition, the inhibition at 50 µM in data set [5] (50 μM) turned out to be 15.6%. The IC50 in [5] was > 50 µM. In addition, the SPF in data set [6] is listed as 5.88 ± 1.35.

Regarding `O=c1ccc2cc(O)c(O)cc2o1` [Esculetin], on tyrosinase (setting [7]), the IC50 is 43 µM.

Take `Nc1cc2ccc(O)cc2oc1=O` [3-Amino-7-hydroxycoumarin]: at tyrosinase, the IC50 was 50 µM.

Consider `O=c1oc2cc(O)ccc2cc1-c1cccc(Br)c1` [Compound 10, 3-(3′-Bromophenyl)-7-hydroxycoumarin], for which, in the data set on mushroom tyrosinase [2], the “Enzyme inhibition Tyrosinase” value was determined as 56.9% and half-maximal inhibition (IC50) required 42 ± 1.1 µM. For the same compound, in data set [3], the “Enzyme inhibition Collagenase” value is 13.2% and the IC50 was > 150 µM. Moreover, the inhibition at 50 µM in [5] (50 μM) is 38.9%. The half-maximal inhibitory concentration (IC50) in [5] was > 50 µM. The same compound displayed an SPF in data set [6] of 6.70 ± 1.30.

With `O=c1oc2ccc3ccccc3c2cc1-c1ccccc1O` [Compound 15, 3-(2′-Hydroxyphenyl)benzo[f]coumarin], the “Enzyme inhibition Tyrosinase” value with mushroom tyrosinase [2] was “N.I”. Further, the IC50 at mushroom tyrosinase [2] is > 50 µM; in data set [3] it was > 150 µM; in data set [5], > 50 µM. In addition, the “Enzyme inhibition Collagenase” value in data set [3] is given as “N.I”. Further, in data set [5] (50 μM), the “Enzyme inhibition Elastase” value was “N.I”. In [6], this compound came in with an SPF of 6.89 ± 3.28.

Regarding `O=c1oc2c(O)cc(Br)cc2cc1-c1ccc(O)cc1` [6-Bromo-8-hydroxy-3-(4'-hydroxyphenyl)coumarin], the IC50 on tyrosinase (setting [7]) was 215 µM.

In the case of `O=c1oc2cc(O)cc(O)c2cc1-c1cccc(Br)c1` [Compound 2, 3-(3′-Bromophenyl)-5,7-dihydroxycoumarin], in the data set on mushroom tyrosinase [2], the “Enzyme inhibition Tyrosinase” value stood at 79.2%; the concentration for half-maximal inhibition (IC50) is 7.03 µM and 7 µM; the “times more active than the standard inhibitor kojic acid (tyrosinase)” value was 2.6 times. Besides, in [3], the “Enzyme inhibition Collagenase” value is 44.3% and the half-maximal inhibitory concentration (IC50) amounted to 110 ± 2.8 µM. Besides, the “Cytotoxicity on HaCaT cell viability” value in [4] is “non-cytotoxic; also recorded: no toxicity”. Also, the inhibition at 50 µM in data set [5] (50 μM) worked out at 20.3%. For the same compound, in [5], the IC50 is > 50 µM. Moreover, in data set [6], the SPF was determined as 4.52 ± 0.22.

As to `O=c1oc2c(O)c(O)ccc2cc1-c1cccc(Br)c1` [Compound 8, 3-(3′-Bromophenyl)-7,8-dihydroxycoumarin], in the data set on mushroom tyrosinase [2], the “Enzyme inhibition Tyrosinase” value is on record as 33.6% and the IC50 was > 50 µM. Also, in [3], the “Enzyme inhibition Collagenase” value stood at 39.9% and half-maximal inhibition (IC50) was put at 122 ± 4.8 µM. Further, the inhibition at 50 µM in data set [5] (50 μM) came to 2.2%. Further, the half-inhibitory concentration (IC50) in [5] was > 50 µM. This compound also gave an SPF in [6] of 6.94 ± 2.57.
